Test results from US20110183958A1, “AZETIDINE DERIVATIVES AS INHIBITORS OF STEAROYL-COENZYME A DELTA-9 DESATURASE” (Merck Frosst Canada Ltd., priority 2008, published 2011).

target: T1, human SCD1 (hSCD-1) (Homo sapiens, UniProt O00767); assay: SCD enzyme activity assay with reconstituted human SCD1 (hSCD-1); assay type: biochemical
T1 construct: made in house; host or cells: baculovirus/Sf9
T1 sequence (O00767 1-359): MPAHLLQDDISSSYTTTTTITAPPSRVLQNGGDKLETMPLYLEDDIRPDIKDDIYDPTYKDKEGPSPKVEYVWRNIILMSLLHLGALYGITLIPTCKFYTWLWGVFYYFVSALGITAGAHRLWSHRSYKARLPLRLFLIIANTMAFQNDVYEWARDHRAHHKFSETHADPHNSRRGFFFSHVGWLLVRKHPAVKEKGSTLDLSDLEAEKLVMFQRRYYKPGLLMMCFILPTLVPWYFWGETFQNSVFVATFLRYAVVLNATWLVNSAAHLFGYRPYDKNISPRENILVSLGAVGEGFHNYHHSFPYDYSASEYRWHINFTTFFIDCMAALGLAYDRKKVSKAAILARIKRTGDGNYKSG
Procedure: I. SCD Enzyme Activity Assay:
The potency of compounds of formula I against the stearoyl-CoA desaturase was determined by measuring the conversion of radiolabeled stearoyl-CoA to oleoyl-CoA using rat liver microsome or human SCD1 (hSCD-1) following previously published procedures with some modifications (Joshi, et al., J. Lipid Res., 18: 32-36 (1977); Talamo, et al., Anal. Biochem, 29: 300-304 (1969)). Liver microsome was prepared from male Wistar or Sprague Dawley rats on a high carbohydrate diet for 3 days (LabDiet # 5803, Purina). The livers were homogenized (1:10 w/v) in a buffer containing 250 mM sucrose, 1 mM EDTA, 5 mM DTT and 50 mM Tris-HCl (pH 7.5). After a 100,000×g centrifugation for […], the liver microsome pellet was suspended in a buffer containing 100 mM sodium phosphate, 20% glycerol, 2 mM DTT, and stored at −78° C. Human SCD1 desaturase system was reconstituted using human SCD1 from a baculovirus/Sf9 expression system, cytochrome B5 and cytochrome B5 reductase. Typically, test compound in 2 μL DMSO was incubated for 15 min at room temperature with 180 μL of the SCD enzyme in a buffer containing 100 mM Tris-HCl (pH 7.5), ATP (5 mM), Coenzyme-A (0.1 mM), Triton X-100 (0.5 mM) and NADH (2 mM). The reaction was initiated by the addition of 20 μL of [^3H]-stearoyl-CoA (final concentration=2 μM, radioactivity concentration=1 μCi/mL). After 10 min, the reaction mixture (80 μL) was mixed with a calcium chloride/charcoal aqueous suspension (100 μL, charcoal (10% w/v) plus 25 μL, CaCl2 (2N). After centrifugation to precipitate the radioactive fatty acid species, tritiated water released from 9,10-[^3H]-stearoyl-CoA by the SCD enzyme was quantified on a scintillation counter.

Compound	IC50 [nM]
CNC(=O)c1cnc(N2CC(Oc3cc(F)ccc3Br)C2)cn1	45
O=C(Nc1ccccc1)c1cnc(N2CC(Oc3cc(F)ccc3Br)C2)cn1	29
O=C(Nc1ccsc1)c1cnc(N2CC(Oc3cc(F)ccc3Br)C2)cn1	24
O=C(Nc1ccc2ccccc2c1)c1cnc(N2CC(Oc3cc(F)ccc3Br)C2)cn1	23
COc1ccc(NC(=O)c2cnc(N3CC(Oc4cc(F)ccc4Br)C3)cn2)cc1	9
O=C(Nc1ccc(-c2cc[nH]n2)cc1)c1cnc(N2CC(Oc3cc(F)ccc3Br)C2)cn1	16
O=C(O)CCc1ccc(NC(=O)c2cnc(N3CC(Oc4cc(F)ccc4Br)C3)cn2)cc1	45
CS(=O)(=O)c1ccc(NC(=O)c2cnc(N3CC(Oc4cc(F)ccc4Br)C3)cn2)cc1	11
